For data set [1], the system named is endotoxin-shock. The experiment in a line: Effect of sialic acid in reduction of endotoxin-shock (survival 24 hours after endotoxin). The data set is classed as in vivo, SMA-strain male mice. The following applies: living mice 24 hours later. On the procedure: Tests were conducted with respect to endotoxin-sensitive, SMA-strain male mice (20 to 30 g) used: (1) sixteen control mice, (2) eight mice each administrated with sialic acid and (3) six mice each administrated with a polymer of sialic acid. (1) With respect to the control mice, 0.1 ml/10 g of physiological saline was peritoneally administrated 30 minutes before the administration of an endotoxin. (2) With respect to the mice administrated with sialic acid, a solution in which 100 mg of sialic acid was dissolved in 10 ml of physiological saline or a ten-times diluted solution thereof was peritoneally administrated to the mouse at a rate of 0.1 ml/10 g of the mouse (Dosage: 100 mg/Kg, 10 mg/Kg). (3) With respect to the mice administrated with the sialic acid polymer, a solution in which 100 mg of a dimer or a trimmer of sialic acid was dissolved in 10 ml of physiological saline or a ten-times was peritoneally administrated to the mouse at a rate of 0.1 ml/10 g (Dosage: 100 mg/Kg). Thirty minutes after the administration, a physiological saline solution of endotoxin (10 mg/ml) was peritoneally administrated to the mouse at a rate of […] (administrated amount: 100 mg/Kg). Then, the number of living mice 24 hours later was checked. […]

Data set [2] concerns renal failure induced by endotoxin. The experiment in a line: Effect upon renal failure induced by endotoxin (kidney clearance of inulin and paraaminohippuric acid). Format: in vivo, Whister-strain rats. The following applies: 10 mg/Kg intravenous. On the procedure: Into each of ten Whister-strain rats (8 to 9 week age) having undergone cannulation at the carotid canal and the bladder was intraveneously drip-infused a 4% manitol solution containing inulin (5 mg/ml) and paraaminohippuric acid (2.5 mg/ml) at a rate of 0.1144 ml/min. Thirty minutes thereafter, a physiological saline solution of sialic acid ([…]) was administered, at a rate of 0.2 ml/100 g (dosage: 10 mg/Kg), to each of the rats administered with sialic acid, whereas the same amount of physiological saline was rapidly interveneously injected to the control rats. Another thirty minutes thereafter, a physiological saline solution of endotoxin was interaveneously injected to the rats (dosage: 0.25 mg/Kg). Then, blood and urine were sampled over 90 minutes, and the concentrations of inulin and paraaminohippuric acid were measured. A kidney clearance was calculated according to the following formula. Urine was collected at an interval of 15 minutes after the administration of sialic acid or physiological saline (in FIG. 2, −15 to 0 minutes, 0 to 15 minutes, 15 to 30 minutes, 30 to 45 minutes and 45 to 60 minutes), and blood was sampled at a middle point of a time period during urine-collecting. The clearance values are shown at such middle points for the respective fractions.
Kidney clearance=Amount of the drug recovered in urine collected in the collecting time period÷Concentration of the drug in plasma at the middle point
The concentration of inulin was measured by the Dishe & Borefreund's method (Z. Dishe and E. Borefreund, J. Biol. Chem., 192, 583-587 (1951)), and the concentration of paraaminohippuric acid was measured by the Marshall's method (E. K. Marshall, J. Biol. Chem., 122, 263-273 (1937)).
Results of the ratio in the filtering speed through glomerulus are shown in FIG. 2, and results of the ratio in renal plasma flow are in FIG. 3. In both the figures, the ordinate means the ratio in the filtering speed through glomerulus or the ratio in the renal plasma flow for 30 minutes between the intraveneous dip infusion of inulin and paraaminohippuric acid and the intraveneous injection of sialic acid or physiological saline.

Where [3] appears, read: endotoxin 0.25 mg/Kg iv 30 minutes later, 30 minutes after endotoxin administration.

In the case of `CC(=O)N[C@H]1[C@H]([C@H](O)[C@H](O)CO)OC(O)(C(=O)O)C[C@@H]1O` (stereo partly drawn) [sialic acid, N-acetylneuraminic acid], the survival rate worked out at 50% in data set [1] (10 mg/Kg peritoneally 30 minutes before endotoxin 100 mg/Kg peritoneally, n=8) and 87.5% in data set [1] (100 mg/Kg peritoneally 30 minutes before endotoxin 100 mg/Kg peritoneally). For the same compound, the “influence on the ratio in the filtering speed through glomerulus and the ratio in the renal plasma flow, sialic acid alone” value in data set [2] (before endotoxin administration) was “no influence was observed”. The “decrease of the ratio in the filtering speed through glomerulus” value in data set [2] (setting [3]) amounted to 30%. Moreover, the “decrease of the ratio in the renal plasma flow” value in data set [2] (setting [3]) came to 20%. The “reduction in both the ratio in the filtering speed through glomerulus and the ratio in the renal plasma flow due to endotoxin” value in data set [2] (risk degree of 5% versus control rats) is reported as “significantly prevented”.

The values above are taken from patent US6395717B1, “Therapeutic drug for endotoxin blood symptom and multi-organ failure induced thereby” (priority 1995, dated 2002).
